Source: ChEMBL document CHEMBL4725462, “Biotransformation: Impact and Application of Metabolism in Drug Discovery” (ACS Med Chem Lett, 2020)
Activity calls are given as the source filed them. The calls are words filed in the database; no cut-off is given here.

Columns and labels:
[1] = tested on: HMC-1.2; test: Induction of apoptosis in human HMC-1.2 cells by flow cytometry; type: functional, cell-based
[2] = Inhibition of IgE-dependent histamine release in normal human blood basophils; type: functional, tissue-based; conditions: Basophil
[3] = cells; type: functional, tissue-based; conditions: Homo sapiens, Mast cell
Description: Growth inhibition of human neoplastic mast cells incubated for 24 to 48 hrs

Compound	Activity [1]	IC50 [2] [µM]	IC50 [3] [µM]
CO[C@@H]1[C@H](N(C)C(=O)c2ccccc2)C[C@H]2O[C@]1(C)n1c3ccccc3c3c4c(c5c6ccccc6n2c5c31)C(=O)NC4O (stereo partly specified)	inactive	0.01	–
CO[C@@H]1[C@H](N(C)C(=O)c2ccccc2)C[C@H]2O[C@]1(C)n1c3ccccc3c3c4c(c5c6ccccc6n2c5c31)C(=O)NC4	Active	–	–
CN(C(=O)c1ccccc1)[C@@H]1C[C@H]2O[C@@](C)([C@@H]1O)n1c3ccccc3c3c4c(c5c6ccccc6n2c5c31)C(=O)NC4	Active	0.01	0.05
